{"source": "paper PMC5889410", "about": "“Design and Biological Evaluation of Antifouling Dihydrostilbene Oxime Hybrids” (Marine Biotechnology (New York, N.y.), 2018)", "origin": "cited, not measured here", "key": {"Vibrio aestuarianus [1]": {"test_system": "Vibrio aestuarianus", "conditions": "ref Hanssen et al. ([2014]); cited from earlier work"}, "Vibrio carchariae [2]": {"test_system": "Vibrio carchariae", "conditions": "ref Hanssen et al. ([2014]); cited from earlier work"}, "Vibrio harveyi [3]": {"test_system": "Vibrio harveyi", "conditions": "ref Hanssen et al. ([2014]); cited from earlier work"}, "Vibrio proteolyticus [4]": {"test_system": "Vibrio proteolyticus", "conditions": "ref Hanssen et al. ([2014]); cited from earlier work"}, "Halomonas aquamarina [5]": {"test_system": "Halomonas aquamarina", "conditions": "ref Hanssen et al. ([2014]); cited from earlier work"}, "marine bacteria": {"test_system": "marine bacteria", "conditions": "panel of marine bacteria; ref Hanssen et al. [2014]; cited from earlier work"}, "Vibrio aestuarianus [6]": {"test_system": "Vibrio aestuarianus", "conditions": "ref Hanssen et al. ([2014]); cited from earlier work", "remark": "listed apart in the source"}, "Vibrio carchariae [7]": {"test_system": "Vibrio carchariae", "conditions": "ref Hanssen et al. ([2014]); cited from earlier work", "remark": "listed apart in the source"}, "Vibrio harveyi [8]": {"test_system": "Vibrio harveyi", "conditions": "ref Hanssen et al. ([2014]); cited from earlier work", "remark": "listed apart in the source"}, "Vibrio natriegens": {"test_system": "Vibrio natriegens", "conditions": "ref Hanssen et al. ([2014]); cited from earlier work"}, "Vibrio proteolyticus [9]": {"test_system": "Vibrio proteolyticus", "conditions": "ref Hanssen et al. ([2014]); cited from earlier work", "remark": "listed apart in the source"}, "Halomonas aquamarina [10]": {"test_system": "Halomonas aquamarina", "conditions": "ref Hanssen et al. ([2014]); cited from earlier work", "remark": "listed apart in the source"}, "Roseobacter litoralis": {"test_system": "Roseobacter litoralis", "conditions": "ref Hanssen et al. ([2014]); cited from earlier work"}, "Shewanella putrefaciens": {"test_system": "Shewanella putrefaciens", "conditions": "ref Hanssen et al. ([2014]); cited from earlier work"}, "[11]": {"test_system": "Pseudoalteromonas elyakovii", "conditions": "ref Hanssen et al. ([2014]); cited from earlier work"}, "Halamphora coffeaeformis [12]": {"test_system": "Halamphora coffeaeformis", "conditions": "ref Hanssen et al. ([2014]); cited from earlier work"}, "Halamphora coffeaeformis [13]": {"test_system": "Halamphora coffeaeformis", "conditions": "ref Hanssen et al. ([2014]); cited from earlier work", "remark": "listed apart in the source"}, "[14]": {"test_system": "Pleurochrysis roscoffensis", "conditions": "ref Hanssen et al. ([2014]); cited from earlier work"}, "[15]": {"test_system": "Pleurochrysis roscoffensis", "conditions": "ref Hanssen et al. ([2014]); cited from earlier work", "remark": "listed apart in the source"}, "Cylindrotheca closterium [16]": {"test_system": "Cylindrotheca closterium", "conditions": "ref Hanssen et al. ([2014]); cited from earlier work"}, "Cylindrotheca closterium [17]": {"test_system": "Cylindrotheca closterium", "conditions": "ref Hanssen et al. ([2014]); cited from earlier work", "remark": "listed apart in the source"}, "Porphyridium purpureum [18]": {"test_system": "Porphyridium purpureum", "conditions": "ref Hanssen et al. ([2014]); cited from earlier work"}, "Porphyridium purpureum [19]": {"test_system": "Porphyridium purpureum", "conditions": "ref Hanssen et al. ([2014]); cited from earlier work", "remark": "listed apart in the source"}, "[20]": {"test_system": "Balanus improvisus cyprid larvae", "conditions": "B. improvisus, ref Hanssen et al. ([2014]), cited from earlier work"}, "microalgae": {"test_system": "microalgae", "design": "method as in Hanssen et al. [2014]", "conditions": "ref Hanssen et al. [2014]; cited from earlier work"}}, "data": [{"smiles": "COc1c(Br)cc(C/C(=N\\O)C(=O)NCCc2c[nH]c(=N)[nH]2)cc1Br", "note": "[Ianthelline, ianthelline]", "values": [{"measurement": "MIC against the adhesion of marine bacteria, V.a.", "setting": "Vibrio aestuarianus [1]", "value": 0.1, "unit": "mg/L"}, {"measurement": "MIC against the adhesion of marine bacteria, V.c.", "setting": "Vibrio carchariae [2]", "value": "– (Not active at > 10 μg/mL)"}, {"measurement": "MIC against the adhesion of marine bacteria, V.h.", "setting": "Vibrio harveyi [3]", "value": "– (Not active at > 10 μg/mL)"}, {"measurement": "MIC against the adhesion of marine bacteria, V.p.", "setting": "Vibrio proteolyticus [4]", "value": "– (Not active at > 10 μg/mL)"}, {"measurement": "MIC against the adhesion of marine bacteria, H.a.", "setting": "Halomonas aquamarina [5]", "value": "– (Not active at > 10 μg/mL)"}, {"measurement": "Inhibition of bacterial adhesion, in general", "setting": "marine bacteria", "value": "not effective"}, {"measurement": "MIC against the growth of marine bacteria, V.a.", "setting": "Vibrio aestuarianus [6]", "value": 0.1, "unit": "mg/L"}, {"measurement": "MIC against the growth of marine bacteria, V.c.", "setting": "Vibrio carchariae [7]", "value": "– (Not active at > 10 μg/mL)"}, {"measurement": "MIC against the growth of marine bacteria, V.h.", "setting": "Vibrio harveyi [8]", "value": 10, "unit": "mg/L"}, {"measurement": "MIC against the growth of marine bacteria, V.n.", "setting": "Vibrio natriegens", "value": "– (Not active at > 10 μg/mL)"}, {"measurement": "MIC against the growth of marine bacteria, V.p.", "setting": "Vibrio proteolyticus [9]", "value": 10, "unit": "mg/L"}, {"measurement": "MIC against the growth of marine bacteria, H.a.", "setting": "Halomonas aquamarina [10]", "value": "– (Not active at > 10 μg/mL)"}, {"measurement": "MIC against the growth of marine bacteria, R.l.", "setting": "Roseobacter litoralis", "value": 1, "unit": "mg/L"}, {"measurement": "MIC against the growth of marine bacteria, S.p.", "setting": "Shewanella putrefaciens", "value": 0.1, "unit": "mg/L"}, {"measurement": "MIC against the growth of marine bacteria, P.e.", "setting": "[11]", "value": 1, "unit": "mg/L"}, {"measurement": "MIC against the adhesion (A) of microalgae, H. coffeaformis", "setting": "Halamphora coffeaeformis [12]", "value": "> 10", "unit": "mg/L"}, {"measurement": "MIC against the growth (G) of microalgae, H. coffeaformis", "setting": "Halamphora coffeaeformis [13]", "value": "> 10", "unit": "mg/L"}, {"measurement": "MIC against the adhesion (A) of microalgae, P. roscoffensis", "setting": "[14]", "value": "> 10", "unit": "mg/L"}, {"measurement": "MIC against the growth (G) of microalgae, P. roscoffensis", "setting": "[15]", "value": 10, "unit": "mg/L"}, {"measurement": "MIC against the adhesion (A) of microalgae, C. closterium", "setting": "Cylindrotheca closterium [16]", "value": "> 10", "unit": "mg/L"}, {"measurement": "MIC against the growth (G) of microalgae, C. closterium", "setting": "Cylindrotheca closterium [17]", "value": "> 10", "unit": "mg/L"}, {"measurement": "MIC against the adhesion (A) of microalgae, P. purpureum", "setting": "Porphyridium purpureum [18]", "value": "> 10", "unit": "mg/L"}, {"measurement": "MIC against the growth (G) of microalgae, P. purpureum", "setting": "Porphyridium purpureum [19]", "value": "> 10", "unit": "mg/L"}, {"measurement": "IC50 (cyprid settlement inhibition)", "setting": "[20]", "value": 3.0, "unit": "mg/L"}, {"measurement": "Toxicity (%) (dead cyprids)", "setting": "[20]; reported at 5 μg/mL", "value": 10.0, "unit": "%"}, {"measurement": "antialgal activity, in words", "setting": "microalgae", "value": "poor antialgal activity"}]}]}
